Measured values reported in US10344330B2, “Glatiramer acetate response biomarker mRNA potency assay” (Mylan Inc., priority 2013, dated 2019).

Key:
[1] = tested on: mIL-5 mRNA in primary LN cells; assay: mIL-5 mRNA by real-time PCR in stimulated LN cells of immunized (SJL/J×BALB/C)F1 mice (Example I); assay type: cell-based, mouse; details: for mIL-5 mRNA Level: Experiment 1, GA-immunized (SJL/J×BALB/C)F1; for mIL-5 mRNA: not normalized to a reference gene
Protocol: For each of the three experiments summarized in Table 1, female (SJL/J×BALB/C) F1 hybrid (Jackson Laboratory) mice were immunized by footpad injection with either 250 μg GMA (Mylan Pharmaceuticals, Inc.) and CFA (Sigma Aldrich), or Mannitol and CFA (as a negative control). The GA solution was diluted to 5 mg/mL with Dulbecco's Phosphate-buffered saline. A dose solution was then prepared by mixing the diluted GA solution (5 mg/mL) and CFA (1:1) until well-emulsified. Each mouse received a total injection volume of 0.1 mL (250 μg GA). Animals were immunized on Day 0. Immunized animals were sacrificed via cervical dislocation on Day 10 following immunization. […] The LN were washed 3 times with −5 mL of RPMI medium, and the LN cells isolated by pressing the LN with a syringe plunger. […] The cell suspension was centrifuged at about 200×g for 10 minutes at about 4° C. and re-suspended in ice cold enriched DCCM-1 medium. The LN cells (2.5×10^6 cells/cm^2) were plated in the wells of a 48-well tissue culture plate and stimulated with GA or controls.
Expression of cytokine mRNA was quantitatively analyzed using a Real-Time PCR system (7500, Applied Biosystems).
(DCCM1 from Beit Haemek Ltd.; Cat. No. 05 010 1A). There was no MBP treatment for the 2-hour groups.
Group 1B animals were female (SJL/J×BALB/C) F1 hybrid (Jackson Laboratory) mice immunized by footpad injection with either 250 μg GA and CFA, or Mannitol and CFA (as a negative control). A dose solution was prepared by mixing a diluted GA solution (5 mg/mL) and CFA (1:1). Each mouse received a total injection volume of […] (250 μg GA). Animals were immunized on Day 0. Immunized animals were sacrificed via cervical dislocation on Day 10 following immunization. Lymph nodes from immunized mice were removed and isolated. LN cells (2.5×10^6 cells/cm^2) were plated in the wells of a 48-well tissue culture plate for stimulation with GA.
Expression of cytokine mRNA was quantitatively analyzed 4 and 6 hours after using a Real-Time PCR system (7500, Applied Biosystems).

[2] = tested on: mouse IL-2 mRNA in primary LN cells; assay: Mouse IL-2 mRNA in LN cells of Copaxone-, GMA- or mannitol-immunized SJL/J mice stimulated with Copaxone and GMA lots, normalized to Actβ or GAPDH (Example V); assay type: cell-based
Protocol: A real-time polymerase chain reaction method was used to measure the expression of cytokine mRNA in GA-stimulated LN cells from GA-immunized SJL/J mice. Normalization of expression with two different housekeeping genes, GAPDH and β-actin, was tested.
Each group consisted of six female SJL/J mice immunized by injection in all four footpads with a total dose of 250 μg of one lot of GA, or mannitol and no GA. Three Copaxone batches and three GMA batches were used to immunize the mice. CFA was included in both GA and mannitol immunizations. Ten days following immunization, LN cell samples isolated from the immunized mice were each stimulated with a concentration of a Copaxone lot and a GMA lot. A positive control of 2.5 μg/mL ConA treated LN cells and a negative control of 10 μg/mL MBP treated cells were included in each group.
Therefore, the Q-PCR analysis was repeated on the samples, measuring levels of IL-2, IL-4, IL-5, and IL-13, using both GAPDH and β-actin as reference gene.

[3] = 2 hour post stimulation, GA 10, ConA 2.5 μg/mL
[4] = 4 hour post stimulation, GA 10, MBP 10, ConA 2.5 μg/mL
[5] = 6 hour post stimulation, GA 10, MBP 10, ConA 2.5 μg/mL
[6] = 24 hour post stimulation, GA 10, MBP 10, ConA 2.5 μg/mL
[7] = Group 1B (GA + CFA), 4 hours post-stimulation, GA 10, MBP 10, ConA 2.5 μg/mL
[8] = Group 1B (GA + CFA), 6 hours post-stimulation, GA 10, MBP 10, ConA 2.5 μg/mL
[9] = Group 2B (Mannitol + CFA), 4 hours post-stimulation, GA 10, MBP 10, ConA 2.5 μg/mL
[10] = Group 2B (Mannitol + CFA), 6 hours post-stimulation, GA 10, MBP 10, ConA 2.5 μg/mL

Molecule | mIL-5 mRNA Level [1, 3] | mIL-5 mRNA Level [1, 4] | mIL-5 mRNA Level [1, 5] | mIL-5 mRNA Level [1, 6] | mIL-5 mRNA [1, 7] | mIL-5 mRNA [1, 8] | mIL-5 mRNA level increase vs DCCM-1-stimulated control ([1]; Group 1B, 4 and 6 hours (text summary of Table 10)) | mIL-5 mRNA [1, 9] | mIL-5 mRNA [1, 10] | IL-2 cross-potency ([2]; Copaxone: C/A, GMA: B/D, 5 μg/mL) | IL-2 mRNA Fold Change ([2]; Group 3 (mice immunized with GA-M2 Mylan GMA), 2.5 μg/mL, normalized to Actβ) | IL-2 mRNA Fold Change ([2]; Group 3 (mice immunized with GA-M2 Mylan GMA), 2.5 μg/mL, normalized to GAPDH) | IL-2 mRNA Fold Change ([2]; Group 4 (mice immunized with GA-C2 Copaxone), 2.5 μg/mL, normalized to Actβ) | IL-2 mRNA Fold Change ([2]; Group 4 (mice immunized with GA-C2 Copaxone), 2.5 μg/mL, normalized to GAPDH) | IL-2 mRNA Fold Change ([2]; Group 3 (mice immunized with GA-M2 Mylan GMA), 10 μg/mL, normalized to Actβ) | IL-2 mRNA Fold Change ([2]; Group 3 (mice immunized with GA-M2 Mylan GMA), 10 μg/mL, normalized to GAPDH) | IL-2 mRNA Fold Change ([2]; Group 4 (mice immunized with GA-C2 Copaxone), 10 μg/mL, normalized to Actβ) | IL-2 mRNA Fold Change ([2]; Group 4 (mice immunized with GA-C2 Copaxone), 10 μg/mL, normalized to GAPDH)
L-glutamic acid polymer with L-alanine, L-lysine and L-tyrosine, acetate (salt) [GA] | 1.6 fold change vs control | 4.8 fold change vs control | 5.1 fold change vs control | 1.9 fold change vs control | 4.0 fold change vs control | 4.3 fold change vs control | at least 4 fold | 1.0 fold change vs control | 1.2 fold change vs control | 108% |  |  |  |  |  |  |  | 
Concanavalin A [ConA, reference compound] | 3.6 fold change vs control | 17.1 fold change vs control | 13.1 fold change vs control | 0.5 fold change vs control | 20.4 fold change vs control | 26.7 fold change vs control |  | 16.6 fold change vs control | 36.5 fold change vs control |  | 123.4 fold | 149.4 fold | 105.0 fold | 84.8 fold |  |  |  | 
MBP: myelin basic protein, a negative control (protein, UniProt P02686 1-304, looked up) Myelin basic protein: MGNHAGKRELNAEKASTNSETNRGESEKKRNLGELSRTTSEDNEVFGEADANQNNGTSSQDTAVTDSKRTADPKNAWQDAHPADPGSRPHLIRLFSRDAPGREDNTFKDRPSESDELQTIQEDSAATSESLDVMASQKRPSQRHGSKYLATASTMDHARHGFLPRHRDTGILDSIGRFFGGDRGAPKRGSGKDSHHPARTAHYGSLPQKSHGRTQDENPVVHFFKNIVTPRTPPPSQGKGRGLSLSRFSWGAEGQRPGFGYGGRASDYKSAHKGFKGVDAQGTLSKIFKLGGRDSRSGSPMARR |  | 0.8 fold change vs control | 0.2 fold change vs control | 0.8 fold change vs control | 1.4 fold change vs control | 0.9 fold change vs control |  | 1.1 fold change vs control | 1.1 fold change vs control |  |  |  |  |  | 1.2 fold | 0.7 fold | 0.8 fold | 1.3 fold
